In ChEMBL document CHEMBL1146527, “The guineamides, novel cyclic depsipeptides from a Papua New Guinea collection of the marine cyanobacterium Lyngbya majuscula” (J Nat Prod, 2003):
pIC50: −log10 of the molar value. The source made the active and inactive calls. No cut-off for these calls is given here.

Legend:
[1] = Cytotoxicity against mouse Neuro2a cells; type: functional, cell-based; conditions: N2a
N2a = test: Cytotoxicity against mouse Neuro2a cells at 10 ug/mL; type: functional, cell-based

Compound | pIC50 [1] | Activity (N2a)
CC1NC(=O)c2csc(n2)[C@H](C)NC(=O)[C@H](Cc2ccccc2)N(C)C(=O)[C@H](C(C)C)N(C)C(=O)[C@H](C(C)C)OC(=O)C1C (stereo partly drawn) [GUINEAMIDE B] | 4.82 | –
C#CCCCC1NC(=O)[C@H](C)N(C)C(=O)[C@H](C(C)C)NC(=O)[C@H](Cc2ccc(OC)cc2)N(C)C(=O)C(C(C)CC)OC(=O)C1C (stereo partly drawn) [GUINEAMIDE C] | 4.80 | –
CC[C@H]1NC(=O)c2csc(n2)[C@H](C)NC(=O)[C@H](Cc2ccccc2)N(C)C(=O)[C@H](C(C)C)N(C)C(=O)[C@H](C)OC(=O)[C@H]1C | – | inactive
